Target: T1, hA3G (human APOBEC3G) (Homo sapiens, UniProt Q9HC16)
T1 construct: 10067; biotinylated with NHS-biotin 3:1
Assay: biolayer interferometry (Octet RED, super streptavidin sensors)
Type: binding
Conditions: biotinylated hA3G immobilised; 5% DMSO; kinetic constant from kon/koff

T1 sequence (Q9HC16 whole entry): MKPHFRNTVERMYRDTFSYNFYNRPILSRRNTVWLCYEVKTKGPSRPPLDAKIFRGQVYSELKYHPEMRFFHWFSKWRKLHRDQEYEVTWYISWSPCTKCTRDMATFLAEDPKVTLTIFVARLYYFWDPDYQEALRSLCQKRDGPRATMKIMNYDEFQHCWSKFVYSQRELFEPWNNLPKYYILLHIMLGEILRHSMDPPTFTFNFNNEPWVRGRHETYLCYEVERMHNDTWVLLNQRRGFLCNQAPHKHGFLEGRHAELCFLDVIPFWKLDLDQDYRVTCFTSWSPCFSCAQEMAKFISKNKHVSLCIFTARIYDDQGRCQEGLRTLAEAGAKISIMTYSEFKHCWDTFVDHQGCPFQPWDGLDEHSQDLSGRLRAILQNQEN

In the case of IMB-301, the “Ligand (hA3G) / KD (M)” value is reported as 1.56E − 05 M.
